The values that follow come from patent US10952992B2, “Methods of treating intraocular pressure with activators of Tie-2” (Aerpio Pharmaceuticals, Inc., priority 2015, dated 2021).

This assay deals with intraocular pressure, study eye/fellow eye. The experiment in a line: Intraocular pressure with Compound 1 + sham, Compound 1 + RBZ or placebo + RBZ, months 1-3 (FIG. 2, TABLE 1). Type of assay: in vivo, human. As for the experimental part: The difference in IOP was determined relative to a pre-treatment baseline (Base) at months 1, 2, and 3 (M1-M3). Intraocular pressure was determined in the study eye in millimeters of mercury (mmHg). […] The difference in IOP was determined relative to a pre-treatment Baseline at Months 1, 2, and 3. Intraocular pressure was determined in the study eye/fellow eye in mmHg.

“placebo + RBZ: a placebo combined with RBZ (ranibizumab)”: the “IOP, fellow eye” value runs as follows: (Baseline (pre-treatment)) 15.8 mmHg; (Month 1) 15.5 mmHg; (Month 2) 15.5 mmHg; (Month 3) 15.7 mmHg. The “IOP, study eye” value turned out to be 15.2 mmHg (Baseline (pre-treatment)), 15.0 mmHg (Month 1), 15.0 mmHg (Month 2) and 15.3 mmHg (Month 3).
